Earlier results in patent US20250283018A1, “TOILET RIM BLOCKS WITH SCENT CHANGE” (SYMRISE AG, priority 2021, published 2025).
Read-outs that look alike come from different tables or passages of the source.

Experiments:
[1] = not given; remark: listed apart in the source
[2] = Table 3, components of POWER PLATIN

| Compound | Bp. [° C.] ([1]; list of selected fragrances) [°C] | Bp. [° C.] ([1]; Table 1, components of MARINA) [°C] | Bp. [° C.] [1, 2] [°C] | other results |
| --- | --- | --- | --- | --- |
| CC1CC(C)(c2ccccc2)OC(C)O1 (stereo not drawn) | 279.2 |  |  | logP (list of selected fragrances): 2.79 |
| CCCCC(=CCC#N)CC | 230 |  |  | logP (list of selected fragrances): 3.98 |
| CCCC1(C)OC2CC34CC(C(C)(C)C3CCC4C)C2(C)O1 (stereo not drawn) | 336 |  |  | logP (list of selected fragrances): 5.94 |
| CC(C)=CCCC(C)CC#N (stereo not drawn) |  | 235 |  | logP (Table 1, components of MARINA): 3.55 |
| CC(C=O)Cc1ccc(C(C)C)cc1 (stereo not drawn) | 262 |  | 262 | logP [2]: 3.91; logP (list of selected fragrances): 3.61 |
| CSC |  |  |  | Bp. [° C.] ([1]; Table 2, components of PEACH): 37 °C |
| CC(C)=CCCC(C)=CCCc1ccncc1 |  | 307 |  | logP (Table 1, components of MARINA): 5.95 |
| CCOC(=O)CC(O)(CC(=O)OCC)C(=O)OCC |  |  |  | Bp. [° C.] ([1]; Table 2, components of PEACH): 294 °C |
| 3-METHYLBUTYL-CYCLOHEXANOL | 245 |  |  | logP (list of selected fragrances): 4.49 |
| C=CC(C)(O)CCC=C(C)CC (mixture of isomers) [ETHYLLINALOOL] |  | 224 |  |  |
| CC1(C)[C@@H]2CC[C@@]1(C)[C@H](O)C2 (racemic) [ISOBORNEOL] |  | 211 |  |  |
| CC(=O)O[C@@H]1C[C@H]2CC[C@]1(C)C2(C)C (racemic) [ISOBORNYLACETAT] |  | 224 |  | logP (Table 1, components of MARINA): 3.86 |
| CC1=CCC(C=CC(C)C(C)O)C1(C)C (stereo in doubt) [EBANOL] |  |  | 274 | logP [2]: 4.93 |
| CCCCCCC1OC(=O)CC1C (stereo not drawn) [3-METHYL-GAMMA-DECALACTONE] | 293 |  |  |  |
| CC(C)C1CC=C(CCC=O)CC1 (stereo not drawn) [3-[4-ISOPROPYLCYCLOHEXEN-1-YL]PROPANAL] | 258 |  |  | logP (list of selected fragrances): 4.8 |
| O=C1CCCCCCCCCCCCCCC1 [8-CYCLOHEXADECANONE, 8-cyclohexadecanone] | 323 |  |  | logP (Table 2, components of PEACH): 5.82; logP (list of selected fragrances): 5.97; Bp. [° C.] ([1]; Table 2, components of PEACH): 323 °C |
| CCC(CC)COC(=O)CC1C=CCC1 (stereo not drawn) [(2-CYCLOPENTEN-1-ACETIC ACID-2-ETHYLBUTYL ESTER] | 252 |  |  |  |
| C=C(C)C1CC=C(C)C(OC(C)=O)C1 (stereo not drawn) [ACETIC ACID CARVYL ESTER] | 92 |  |  | logP (list of selected fragrances): 4.26 |
| CC(=O)OC1CCCCC1C(C)(C)C (stereo not drawn) [AGRUMEX LC] |  | 227 | 227 | Bp. [° C.] ([1]; Table 2, components of PEACH): 227 °C |
| CCCCCCCCCC=O [ALDEHYD C10] |  | 208.5 | 208.5 | logP (Table 1, components of MARINA): 3.76; logP (Table 2, components of PEACH): 3.76; logP [2]: 3.76; Bp. [° C.] ([1]; Table 2, components of PEACH): 208.5 °C |
| CCCCCCCCCCC=O [ALDEHYD C11 UNDECANAL] |  | 223 |  | logP (Table 1, components of MARINA): 4.25 |

| Compound | Bp. [° C.] ([1]; list of selected fragrances) [°C] | Bp. [° C.] ([1]; Table 1, components of MARINA) [°C] | Bp. [° C.] [1, 2] [°C] | other results |
| --- | --- | --- | --- | --- |
| CCCCCCCCCCCC=O [ALDEHYD C12 LAURIN] |  | 249 |  | logP (Table 1, components of MARINA): 4.75 |
| CCCCCCCCCC(C)C=O (stereo not drawn) [ALDEHYD C12 MNA] |  |  | 171 | logP [2]: 4.67 |
| CCCCCC1CCC(=O)O1 (stereo not drawn) [ALDEHYD C18 SOG.] |  |  |  | Bp. [° C.] ([1]; Table 2, components of PEACH): 250 °C |
| CCCCCCCC=O [ALDEHYD C 8] |  | 171 |  | logP (Table 1, components of MARINA): 2.78; logP (Table 2, components of PEACH): 2.78; Bp. [° C.] ([1]; Table 2, components of PEACH): 171 °C |
| CCCCCCCCC=O [ALDEHYD C 9] |  | 191 |  | logP (Table 1, components of MARINA): 3.27 |
| CCCCCCCCCCO [ALKOHOL C10] |  | 231.1 |  | logP (Table 1, components of MARINA): 3.79 |
| C=CCOC(=O)COCCC(C)C [ALLYLAMYLGLYCOLAT] |  |  | 226 |  |
| C=CCOC(=O)CCC1CCCCC1 [ALLYLCYCLOHEXYLPROPIONAT] | 250 |  |  |  |
| C=CCOC(=O)COc1ccccc1 [ALLYLPHENOXYACETAT] | 266 |  |  | Bp. [° C.] ([1]; Table 2, components of PEACH): 266 °C |
| COC(OC)C(C)(C)CC=C(C)C [AMAROCIT ®] |  |  | 203 | logP [2]: 3.39 |
| CC1(C)CCC[C@]2(C)[C@H]3CCO[C@]3(C)CC[C@@H]12 [AMBROXIDE] |  | 283 |  |  |
| C/C=C/c1ccc(OC)cc1 [ANETHOL SUPRA 21.5 CELSIUS] |  |  | 234 |  |
| COc1ccc(C=O)cc1 [ANISALDEHYD REIN] |  |  | 248 |  |
| CCCCCCC1OC(=O)CC1C (stereo not drawn) [APRIFLOREN ®] |  |  |  | Bp. [° C.] ([1]; Table 2, components of PEACH): 274 °C |
| O=C(OCc1ccccc1)c1ccccc1O [BENZYLSALICYLAT] | 325 |  |  | logP (list of selected fragrances): 4.06 |
| CC(=O)/C=C/C1=C(C)CCCC1(C)C [BETA IONONE] | 259 | 259 |  | logP (list of selected fragrances): 3.77 |
| Cc1ccc2c(c1)OCC(=O)CO2 [CALONE] |  | 289 | 289 | logP (Table 1, components of MARINA): 2.43; logP [2]: 2.43 |
| C=C1CC/C=C(/C)CC[C@@H]2[C@@H]1CC2(C)C [CARYOPHYLLEN NAT. REKT.] |  |  | 251 | logP [2]: 6.3 |
| CO[C@]1(C)CC[C@@]23C[C@@H]1C(C)(C)[C@@H]2CC[C@H]3C [CEDRAMBER] |  | 270 | 270 |  |
| C[C@@H]1CC[C@H]2C(C)(C)[C@H]3C[C@@]12CC[C@@]3(C)O [CEDROL CRIST. NAT.] |  | 283 | 283 |  |
| CO[C@]1(C)CC[C@@]23C[C@@H]1C(C)(C)[C@@H]2CC[C@H]3C [CEDROL METHYL ETHER] | 270 |  |  |  |
